In general, MIC refers to the lowest concentration found to suppress growth.

Test in all cases: ≥ marks a high value that may be exact or a test limit, other limits are often not marked, values filed in µg/mL are converted to µM
In assay [1] the test system is Acinetobacter baumannii CCARM 12035.
Assay [2] deals with Pseudomonas aeruginosa CCARM 2003.
For assay [3], the system named is Escherichia coli CCARM 1238.
Assay [4] has as its system Escherichia coli KCTC 1682.
Assay [5] concerns Bacillus subtilis KCTC 1022.
The test system of assay [6] is Escherichia coli CCARM 1229.
For assay [7], the system named is Staphylococcus aureus CCARM 3114.
The test system of assay [8] is Pseudomonas aeruginosa KCTC 2004.
Assay [9] concerns Pseudomonas aeruginosa CCARM 2095.
Assay [10] has as its system Pseudomonas aeruginosa KCTC 1637.
Assay [11] concerns Staphylococcus aureus KCTC 1916.
The subject of assay [12] is Escherichia coli KCTC 2571.
The test system of assay [13] is Salmonella typhimurium KCTC 1926.
Assay [14] concerns Pseudomonas aeruginosa KCTC 2513.
Assay [15] concerns Acinetobacter baumannii CCARM 12037.
The test system of assay [16] is Staphylococcus aureus CCARM 3108.
Assay [17] has as its system Acinetobacter baumannii CCARM 12005.
Assay [18] has as its system Staphylococcus epidermidis KCTC 1917.
Assay [19] has as its system Salmonella typhimurium CCARM 8009.
The test system of assay [20] is Staphylococcus aureus KCTC 3881.
For assay [21], the system named is Staphylococcus aureus CCARM 3126.
The test system of assay [22] is Bacillus subtilis KCTC 3068.
Assay [23] concerns Staphylococcus aureus CCARM 3089.
Assay [24] concerns Acinetobacter baumannii CCARM 12036.
Assay [25] relates to Staphylococcus aureus KCTC 1621.
Assay [26] deals with Salmonella typhimurium CCARM 8003.
Assay [27] has as its system Salmonella typhimurium CCARM 8007.
The subject of assay [28] is Pseudomonas aeruginosa CCARM 2163.
The test system of assay [29] is Escherichia coli KCTC 2593.
Assay [30] relates to Bacillus subtilis KCTC 1021.
The test system of assay [31] is Staphylococcus aureus CCARM 3090.
The test system of assay [32] is Pseudomonas aeruginosa CCARM 2002.
For the next assay, the system named is Escherichia coli DL7.
Assay [33] relates to Klebsiella aerogenes ATCC 13048.
For assay [34], the system named is Staphylococcus epidermidis ATCC 12228.
A further assay has as its system Bacillus subtilis PS832.
Assay [35] concerns Candida albicans FRR 5580.
Assay [36] concerns Pseudomonas aeruginosa ATCC 9027.
In assay [37] the test system is Pseudomonas aeruginosa ATCC 27853.
In assay [38] the test system is Staphylococcus aureus ATCC 29313.
Assay [39] has as its system Xanthomonas axonopodis pv. glycines ISBF 327.
Assay [40] has as its system Escherichia coli ATCC 25922.
In assay [41] the test system is Streptococcus pneumoniae BCRC 10794.
Assay [42] relates to Staphylococcus aureus BCRC 10780.

Values after ≈ are worked out from the molar mass of the structure shown.

Turning to `CC[C@H](C)[C@H](NC(=O)CNC(=O)[C@H](CCCN=C(N)N)NC(=O)[C@H](Cc1ccccc1)NC(=O)[C@@H](NC(=O)[C@H](Cc1cnc[nH]1)NC(=O)[C@H](Cc1cnc[nH]1)NC(=O)[C@H](Cc1ccccc1)NC(=O)[C@H](C)N)[C@@H](C)CC)C(=O)N[C@H](C(=O)N[C@@H](Cc1cnc[nH]1)C(=O)N[C@H](C(=O)NCC(=O)N[C@@H](CCCCN)C(=O)N[C@H](C(=O)N[C@H](C(=O)N[C@@H](Cc1cnc[nH]1)C(=O)N[C@@H](CCCN=C(N)N)C(=O)N[C@@H](CC(C)C)C(=O)N[C@H](C(=O)N[C@H](C(=O)NCC(=O)O)[C@@H](C)O)C(C)C)[C@@H](C)CC)[C@@H](C)O)C(C)C)C(C)C` [AFHHIFRGIVHVGKTIHRLVTG], the MIC in assay [1] was 2 µM (≈ 4.99 µg/mL); in [2], 2 µM (≈ 4.99 µg/mL); in assay [3] it was 8 µM (≈ 20 µg/mL); in assay [4], 2 µM (≈ 4.99 µg/mL); in assay [5], 1 µM (≈ 2.5 µg/mL); in [6], 8 µM (≈ 20 µg/mL). The MIC in assay [7] was 8 µM (≈ 20 µg/mL); in assay [8] it was 4 µM (≈ 9.98 µg/mL); in [9] it was 2 µM (≈ 4.99 µg/mL); in assay [10], 4 µM (≈ 9.98 µg/mL); in assay [11], 1 µM (≈ 2.5 µg/mL); in [12] it was 2 µM (≈ 4.99 µg/mL). The MIC came out at 8 µM (≈ 20 µg/mL) in [13]; 8 µM (≈ 20 µg/mL) in assay [14]; 2 µM (≈ 4.99 µg/mL) in assay [15]; 8 µM (≈ 20 µg/mL) in assay [16]; 2 µM (≈ 4.99 µg/mL) in assay [17]; 2 µM (≈ 4.99 µg/mL) in assay [18]. The MIC in assay [19] worked out at 8 µM (≈ 20 µg/mL); in assay [20], 2 µM (≈ 4.99 µg/mL); in assay [21], 8 µM (≈ 20 µg/mL); in assay [22], 4 µM (≈ 9.98 µg/mL); in assay [23], 8 µM (≈ 20 µg/mL); in assay [24], 2 µM (≈ 4.99 µg/mL). In addition, the MIC in [25] worked out at 1 µM (≈ 2.5 µg/mL); in assay [26], 8 µM (≈ 20 µg/mL); in assay [27], 8 µM (≈ 20 µg/mL); in assay [28], 2 µM (≈ 4.99 µg/mL); in assay [29], 2 µM (≈ 4.99 µg/mL); in assay [30], 4 µM (≈ 9.98 µg/mL). Moreover, the MIC in assay [31] came to 8 µM (≈ 20 µg/mL); in assay [32], 2 µM (≈ 4.99 µg/mL).
Consider `CC[C@H](C)[C@H](NC(=O)[C@H](CCCN=C(N)N)NC(=O)[C@H](CCCCN)NC(=O)[C@H](CC(C)C)NC(=O)[C@H](CC(C)C)NC(=O)CNC(=O)[C@H](Cc1cnc[nH]1)NC(=O)[C@H](C)NC(=O)[C@@H](N)CC(=O)O)C(=O)N[C@@H](CCCCN)C(=O)N[C@H](C(=O)N[C@@H](CC(C)C)C(=O)N[C@@H](CC(C)C)C(N)=O)[C@@H](C)O` [DAHGLLKRIKTLL], for which the minimal inhibitory concentration (MIC) is 8 µM (≈ 11.8 µg/mL) against Escherichia coli DL7, ≥ 32 µM in assay [33], 16 µM (≈ 23.6 µg/mL) in [34] and 2 µM (≈ 2.95 µg/mL) against Bacillus subtilis PS832.
Take `CC(C)[C@H](NC(=O)[C@@H]1CCCN1C(=O)[C@@H](N)Cc1ccccc1)C(=O)N[C@H](C(=O)N[C@@H](Cc1c[nH]c2ccccc12)C(=O)N[C@@H](CCCN=C(N)N)C(=O)N[C@@H](Cc1c[nH]c2ccccc12)C(=O)N[C@@H](Cc1c[nH]c2ccccc12)C(=O)N[C@@H](CCCCN)C(=O)N[C@@H](Cc1c[nH]c2ccccc12)C(=O)N[C@@H](Cc1c[nH]c2ccccc12)C(=O)N[C@@H](CCCCN)C(=O)NCC(=O)O)[C@@H](C)O` [FPVTWRWWKWWKG]: the values for the MIC in assay [35] and in assay [36] were ≥ 134 µM and 67.1 µM (≈ 125 µg/mL), respectively.
Regarding `CC[C@H](C)[C@H](NC(=O)CN)C(=O)NCC(=O)N[C@@H](CC(=O)O)C(=O)N[C@H](C(=O)N[C@@H](CC(C)C)C(=O)N[C@@H](CCCCN)C(=O)N[C@@H](CC(N)=O)C(=O)N[C@@H](CC(C)C)C(=O)N[C@@H](C)C(=O)N[C@@H](CCCCN)C(=O)N[C@@H](C)C(=O)N[C@@H](C)C(=O)NCC(=O)N[C@@H](CCCCN)C(=O)N[C@@H](C)C(=O)N[C@@H](C)C(=O)N[C@@H](CC(C)C)C(=O)N[C@@H](Cc1cnc[nH]1)C(=O)N[C@@H](C)C(=O)N[C@H](C(=O)NCC(=O)N[C@@H](CCC(=O)O)C(=O)N[C@@H](CO)C(=O)N[C@@H](CC(C)C)C(N)=O)C(C)C)[C@@H](C)CC` [GIGDILKNLAKAAGKAALHAVGESL], the minimal inhibitory concentration (MIC) was found to be 77 µM (≈ 186 µg/mL) in [37], 19 µM (≈ 45.9 µg/mL) in assay [38], 2 µM (≈ 4.83 µg/mL) in assay [39] and 19 µM (≈ 45.9 µg/mL) in assay [40].
With `CC[C@H](C)[C@H](NC(=O)[C@H](Cc1cnc[nH]1)NC(C)=O)C(=O)N[C@H](C(=O)N[C@@H](CCCCN)C(=O)NCC(=O)N[C@@H](CC(C)C)C(N)=O)[C@@H](C)CC` [HIIKGL], the MIC in assay [41] and in assay [42] was ≥ 147 µM throughout.

The values above are taken from DBAASP.
